Reference: patent US9770026B2, “Substituted pyrimidine compound and uses thereof” (Shenyang Sinochem Agrochemicals R&D Co., Ltd., priority 2012, dated 2017)

Tests used:
[1] = system: rice blast; assay: microbe, parasite or virus in culture; assay type: cell-based; details: Pyricularia oryzae, read-out: inhibition rate against rice blast, 25 ppm, in vitro
[2] = system: cucumber gray mold; assay: fungicidal activity in vitro (inhibition rate) against cucumber gray mold; assay type: cell-based; details: 25 ppm, in vitro; read-out: inhibition rate against cucumber gray mold
[3] = system: Diamond back moth; assay: insecticidal activity against diamond back moth, airbrush spray; assay type: in vivo; details: 72 h; for pest or weed control at 600 µg/mL: 600 mg/L; for pest or weed control at 10 µg/mL: 10 mg/L; for pest or weed control at 100 µg/mL: 100 mg/L
Method in brief: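 Airbrush leaf-disc spray test: both faces of 2 cm cabbage discs received 0.5 ml of test solution at 0.7 kg/cm^2. Solutions were made in acetone:methanol (1:1) and brought to concentration with 0.1% Tween 80 in water. Ten second-instar larvae per disc, triplicates, were held at 25° C and 60˜70% R.H., with mortality recorded at 72 hrs.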

[4] = system: armyworm; assay: bioactivity test against armyworm, airbrush spray; assay type: in vivo; details: 72 h; for pest or weed control at 600 µg/mL: 600 mg/L
[5] = system: Green peach aphids (Myzus Persicae Sulzer); assay: bioactivity test against green peach aphid, airbrush foliar spray; assay type: in vivo; details: for pest or weed control at 10 µg/mL: 10 mg/L; for pest or weed control at 10 µg/mL / pest or weed control at 100 µg/mL / pest or weed control at 600 µg/mL / pest or weed control at 1.25 µg/mL / pest or weed control at 2.5 µg/mL / pest or weed control at 5 µg/mL: contrastive test, read-out: Insecticidal activity against peach aphid (%); for pest or weed control at 100 µg/mL: 100 mg/L; for pest or weed control at 600 µg/mL: 600 mg/L; for pest or weed control at 1.25 µg/mL: 1.25 mg/L; for pest or weed control at 2.5 µg/mL: 2.5 mg/L; for pest or weed control at 5 µg/mL: 5 mg/L
Method in brief: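 Death rate was scored at 48 hrs, held at 25±1 C and 60±5% RH, following airbrush foliar spray (0.5 mL, 10 psi) onto cabbage leaf discs bearing about 15-30 aphids. Test solutions: compound dissolved in 1:1 acetone:methanol, brought to concentration with 0.1% tween 80 water.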

[6] = system: carmine spider mite; assay: bioactivity test against carmine spider mite, airbrush spray; assay type: in vivo; details: for pest or weed control at 600 µg/mL: 600 mg/L
Method in brief: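 Broadbean seedlings infested with adult mites were sprayed with compound (acetone/methanol stock diluted in 0.1% Tween 80 water) by airbrush at 0.7 kg/cm^2, 0.5 ml. Three replicates were run. Mortality was scored after 72 hrs.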

[7] = system: corn rust; assay: protectant activity in vivo against corn rust; details: Zea mays, 168 h; for pest or weed control at 400 µg/mL: read-out: control effect against corn rust (%), 400 mg/L; for pest or weed control at 100 ppm: read-out: protectant activity against corn rust in vivo, 100 ppm
[8] = system: wheat powdery mildew; assay: protectant activity in vivo against wheat powdery mildew; details: Triticum aestivum, 168 h; for pest or weed control at 400 µg/mL: read-out: control effect against wheat powdery mildew (%), 400 mg/L, protectant activity; for pest or weed control at 400 ppm: read-out: protectant activity against wheat powdery mildew in vivo, 400 ppm
[9] = system: cucumber downy mildew; assay: protectant activity in vivo against cucumber downy mildew; details: Cucumis sativus, 168 h; for pest or weed control at 25 µg/mL: read-out: control effect against cucumber downy mildew (%), 25 mg/L; for pest or weed control at 50 µg/mL: read-out: control effect against cucumber downy mildew (%), 50 mg/L; for pest or weed control at 100 µg/mL: read-out: control effect against cucumber downy mildew (%), 100 mg/L; for pest or weed control at 400 µg/mL: read-out: control effect against cucumber downy mildew (%), 400 mg/L; for pest or weed control at 100 ppm: read-out: protectant activity against cucumber downy mildew in vivo, 100 ppm; for pest or weed control at 400 ppm: read-out: protectant activity against cucumber downy mildew in vivo, 400 ppm
[10] = read-out: Insecticidal activity against armyworm (%)
[11] = Tetranychus cinnabarinus, 72 h, contrastive test, read-out: Insecticidal activity against carmine spider mite (% )
[12] = mortality after 72 hrs, read-out: control (test results against diamond back moth)
[13] = Myzus persicae, foliar, 48 h, death rate after 48 hrs
[14] = Tetranychus cinnabarinus, 72 h, mortality after 72 hrs

## Cc1ncnc(NC(=O)Cc2ccc(Oc3ccc(C(F)(F)F)cc3)cc2)c1Cl [CK61, reference compound]
[1]
  inhibition at 25 ppm: 0%
[2]
  inhibition at 25 ppm: 0%
[3]
  pest or weed control at 600 µg/mL: 0%
[4]; [10]
  pest or weed control at 600 µg/mL: 0%
[5]; Myzus persicae, foliar, 48 h
  pest or weed control at 10 µg/mL: 0%
  pest or weed control at 100 µg/mL: 0%
  pest or weed control at 600 µg/mL: 88%
[6]; [11]
  pest or weed control at 600 µg/mL: 0%
[7]; protectant activity
  pest or weed control at 400 µg/mL: 0%
[8]
  pest or weed control at 400 µg/mL: 70%
[9]; protectant activity
  pest or weed control at 25 µg/mL: 30%
  pest or weed control at 50 µg/mL: 85%
  pest or weed control at 100 µg/mL: 90%
  pest or weed control at 400 µg/mL: 100%

## CC(Cl)c1ncnc(NCCc2ccc(Oc3nc(Cl)c(Cl)cc3Cl)cc2)c1Cl (stereo not drawn) [CK63, reference compound]
[1]
  inhibition at 25 ppm: 0%
[2]
  inhibition at 25 ppm: 0%
[3]
  pest or weed control at 600 µg/mL: 57%
[4]; [10]
  pest or weed control at 600 µg/mL: 71%
[5]; Myzus persicae, foliar, 48 h
  pest or weed control at 10 µg/mL: 0%
  pest or weed control at 100 µg/mL: 0%
  pest or weed control at 600 µg/mL: 100%
[6]; [11]
  pest or weed control at 600 µg/mL: 0%
[7]; read-out: control effect against corn rust (%), 6.25 mg/L, protectant activity
  pest or weed control at 6.25 µg/mL: 0%
[7]; read-out: control effect against corn rust (%), 25 mg/L, protectant activity
  pest or weed control at 25 µg/mL: 0%
[7]; read-out: control effect against corn rust (%), 100 mg/L, protectant activity
  pest or weed control at 100 µg/mL: 30%
[7]; protectant activity
  pest or weed control at 400 µg/mL: 100%
[8]
  pest or weed control at 400 µg/mL: 50%
[9]; protectant activity
  pest or weed control at 400 µg/mL: 70%

## CCc1ncnc(NCCc2ccc(Oc3ccc(Cl)nn3)cc2)c1Cl [Compound I-3309]
[1]
  inhibition at 25 ppm: 80 to 99%
[2]
  inhibition at 25 ppm: 80 to 99%
[3]
  pest or weed control at 10 µg/mL: 60%
  pest or weed control at 100 µg/mL: 100%
  pest or weed control at 600 µg/mL: 100%
[3]; 100 ppm, mortality after 72 hrs, read-out: control (test results against diamond back moth)
  pest or weed control at 100 ppm: 100%
[3]; [12]
  pest or weed control at 600 ppm: 100%
[4]; 10 mg/L, read-out: Insecticidal activity against armyworm (%)
  pest or weed control at 10 µg/mL: 60%
[4]; 100 mg/L, read-out: Insecticidal activity against armyworm (%)
  pest or weed control at 100 µg/mL: 100%
[4]; [10]
  pest or weed control at 600 µg/mL: 100%
[4]; 100 ppm, mortality after 72 h
  pest or weed control at 100 ppm: 100%
[4]; mortality after 72 h
  pest or weed control at 600 ppm: 100%
[5]; Myzus persicae, foliar, 48 h
  pest or weed control at 1.25 µg/mL: 48%
  pest or weed control at 2.5 µg/mL: 96%
  pest or weed control at 5 µg/mL: 100%
  pest or weed control at 10 µg/mL: 100%
  pest or weed control at 100 µg/mL: 100%
  pest or weed control at 600 µg/mL: 100%
[5]; [13]
  pest or weed control at 10 ppm: 100%
  pest or weed control at 100 ppm: 100%
  pest or weed control at 600 ppm: 100%
[6]; [14]
  pest or weed control at 100 ppm: 80 to 99%
  pest or weed control at 600 ppm: 80 to 99%
[7]
  pest or weed control at 100 ppm: 80 to 99%
[8]
  pest or weed control at 400 ppm: 100%
[9]; read-out: control effect against cucumber downy mildew (%), 3.125 mg/L, protectant activity
  pest or weed control at 3.125 µg/mL: 50%
[9]; read-out: control effect against cucumber downy mildew (%), 6.25 mg/L, protectant activity
  pest or weed control at 6.25 µg/mL: 60%
[9]; read-out: control effect against cucumber downy mildew (%), 12.5 mg/L, protectant activity
  pest or weed control at 12.5 µg/mL: 70%
[9]; protectant activity
  pest or weed control at 25 µg/mL: 90%
  pest or weed control at 50 µg/mL: 90%
  pest or weed control at 100 µg/mL: 90%
  pest or weed control at 400 µg/mL: 100%
[9]; read-out: protectant activity against cucumber downy mildew in vivo, 25 ppm
  pest or weed control at 25 ppm: 80 to 99%
[9]; read-out: protectant activity against cucumber downy mildew in vivo, 50 ppm
  pest or weed control at 50 ppm: 80 to 99%
[9]
  pest or weed control at 100 ppm: 80 to 99%
  pest or weed control at 400 ppm: 100%

## CCc1ncnc(NCCc2ccc(Oc3ccc(C(F)(F)F)cc3)cc2)c1Cl [II-347]
[1]
  inhibition at 25 ppm: 80 to 99%
[2]
  inhibition at 25 ppm: 80 to 99%
[3]
  pest or weed control at 10 µg/mL: 65%
  pest or weed control at 100 µg/mL: 70%
  pest or weed control at 600 µg/mL: 100%
[3]; [12]
  pest or weed control at 600 ppm: 100%
[4]; mortality after 72 h
  pest or weed control at 600 ppm: 100%
[5]; 2.5 ppm, death rate after 48 hrs
  control (test results against green peach aphid): 100%
[5]; Myzus persicae, foliar, 48 h
  pest or weed control at 1.25 µg/mL: 81%
  pest or weed control at 2.5 µg/mL: 100%
  pest or weed control at 5 µg/mL: 100%
  pest or weed control at 10 µg/mL: 100%
  pest or weed control at 100 µg/mL: 100%
  pest or weed control at 600 µg/mL: 100%
[5]; Myzus persicae, foliar, 48 h, 5 ppm, death rate after 48 hrs
  pest or weed control at 5 ppm: 100%
[5]; [13]
  pest or weed control at 10 ppm: 100%
  pest or weed control at 100 ppm: 100%
  pest or weed control at 600 ppm: 100%
[6]; 2.5 mg/L
  Insecticidal activity against carmine spider mite (% ): 75%
[6]; 5 mg/L
  Insecticidal activity against carmine spider mite (% ): 90%
[6]; Tetranychus cinnabarinus, 72 h, 10 mg/L, contrastive test, read-out: Insecticidal activity against carmine spider mite (% )
  pest or weed control at 10 µg/mL: 100%
[6]; Tetranychus cinnabarinus, 72 h, 100 mg/L, contrastive test, read-out: Insecticidal activity against carmine spider mite (% )
  pest or weed control at 100 µg/mL: 100%
[6]; [11]
  pest or weed control at 600 µg/mL: 100%
[6]; Tetranychus cinnabarinus, 72 h, 10 ppm, mortality after 72 hrs
  pest or weed control at 10 ppm: 100%
[6]; [14]
  pest or weed control at 100 ppm: 100%
  pest or weed control at 600 ppm: 100%
[7]; read-out: protectant activity against corn rust in vivo, 6.25 ppm
  pest or weed control at 6.25 ppm: 80 to 99%
[7]; read-out: protectant activity against corn rust in vivo, 25 ppm
  pest or weed control at 25 ppm: 80 to 99%
[7]
  pest or weed control at 100 ppm: 100%
[7]; read-out: protectant activity against corn rust in vivo, 400 ppm
  pest or weed control at 400 ppm: 100%
[8]; read-out: protectant activity against wheat powdery mildew in vivo, 25 ppm
  pest or weed control at 25 ppm: 100%
[8]; read-out: protectant activity against wheat powdery mildew in vivo, 100 ppm
  pest or weed control at 100 ppm: 100%
[8]
  pest or weed control at 400 ppm: 100%
[9]
  pest or weed control at 100 ppm: 80 to 99%
  pest or weed control at 400 ppm: 100%
